Source: patent US20260226068A1, “IMIDAZOTRIAZINE IL-17A MODULATORS AND USES THEREOF” (DICE ALPHA, INC., priority 2023, published 2026)

Assays:
[1] = biological target: T1, IL-17A/A (Homo sapiens, UniProt Q16552); assay: IL-17A/A HEK-Blue cell assay (SEAP reporter); format: cell-based; details: HEK-Blue IL-17A reporter cells, IL17A/A 5 ng/mL, 20 hours, SEAP read at A630; read-out: HEK-Blue IL17AA (IC50 for IL-17A/A inhibition)
T1 construct: purchased Genscript Z03228
T1 sequence (Q16552 24-155): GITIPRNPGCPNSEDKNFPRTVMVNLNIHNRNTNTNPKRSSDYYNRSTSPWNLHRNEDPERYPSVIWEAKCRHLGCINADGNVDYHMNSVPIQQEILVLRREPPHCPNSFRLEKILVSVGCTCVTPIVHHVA

[2] = biological target: T2, IL-17A/F (Homo sapiens, UniProt Q16552+Q96PD4); assay: IL-17A/F HEK-Blue cell assay (SEAP reporter); format: cell-based; details: HEK-Blue IL-17A reporter cells, IL17A/F 5 ng/mL, 20 hours, SEAP read at A630; read-out: HEK-Blue IL17AF (IC50 for IL-17A/F inhibition)
T2 construct: purchased R&D Systems
T2 sequence (Q16552 24-155): T1 sequence (Q16552 24-155)
T2 sequence (Q96PD4 31-163): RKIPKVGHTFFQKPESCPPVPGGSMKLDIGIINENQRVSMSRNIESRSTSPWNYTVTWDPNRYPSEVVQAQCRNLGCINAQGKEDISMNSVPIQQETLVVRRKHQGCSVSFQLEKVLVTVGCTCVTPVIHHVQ

Row | IC50 [1] | IC50 [2] | SMILES
1 | < 100 nM | > 1000 nM | CCn1nccc1C(=O)N[C@H](c1cn2nc(C[C@H]3C[C@@H](C(F)(F)F)CNC3=O)c(CN3CC(C)(F)C3)nc2n1)C1CCC(F)(F)CC1 [Compound 337, N—((S)-(4,4-difluorocyclohexyl)(3-((3-fluoro-3-methylazetidin-1-yl)methyl)-2-(((3R,5R)-2-oxo-5-(trifluoromethyl)piperidin-3-yl)methyl)imidazo[1,2-b][1,2,4]triazin-6-yl)methyl)-1-ethyl-1H-pyrazole-5-carboxamide]
2 | 100 to 1000 nM | > 1000 nM | CCn1nccc1C(=O)N[C@H](c1cn2nc(C[C@H]3C[C@@H](C(F)(F)F)CNC3=O)c(CN3CC4(CC4)C3)nc2n1)C1CCC(F)(F)CC1 [Compound 339, N—((S)-(3-((5-azaspiro[2.3]hexan-5-yl)methyl)-2-(((3R,5R)-2-oxo-5-(trifluoromethyl)piperidin-3-yl)methyl)imidazo[1,2-b][1,2,4]triazin-6-yl)(4,4-difluorocyclohexyl)methyl)-1-ethyl-1H-pyrazole-5-carboxamide]
3 | < 100 nM | > 1000 nM | CCn1nccc1C(=O)N[C@H](c1cn2nc(C[C@H]3C[C@@H](C(F)(F)F)CNC3=O)c(CN3CC4(C3)CC(O)(C(F)(F)F)C4)nc2n1)C1CCC(F)(F)CC1 [Compound 341, N—((S)-(4,4-difluorocyclohexyl)(3-((6-hydroxy-6-(trifluoromethyl)-2-azaspiro[3.3]heptan-2-yl)methyl)-2-(((3R,5R)-2-oxo-5-(trifluoromethyl)piperidin-3-yl)methyl)imidazo[1,2-b][1,2,4]triazin-6-yl)methyl)-1-ethyl-1H-pyrazole-5-carboxamide]
4 | < 100 nM | > 1000 nM | CCn1nccc1C(=O)N[C@H](c1cn2nc(C[C@H]3C[C@@H](C(F)(F)F)CNC3=O)c(CN3CCCC3C)nc2n1)C1CCC(F)(F)CC1 (stereo partly drawn) [Compound 343, N-((1S)-(4,4-difluorocyclohexyl)(3-((2-methylpyrrolidin-1-yl)methyl)-2-(((3R,5R)-2-oxo-5-(trifluoromethyl)piperidin-3-yl)methyl)imidazo[1,2-b][1,2,4]triazin-6-yl)methyl)-1-ethyl-1H-pyrazole-5-carboxamide]
5 | < 100 nM | > 1000 nM | CCn1nccc1C(=O)N[C@H](c1cn2nc(C[C@H]3C[C@@H](C(F)(F)F)CNC3=O)c(CN3CCC(F)(F)CC3)nc2n1)C1CCC(F)(F)CC1 [Compound 345, N—((S)-(4,4-difluorocyclohexyl)(3-((4,4-difluoropiperidin-1-yl)methyl)-2-(((3R,5R)-2-oxo-5-(trifluoromethyl)piperidin-3-yl)methyl)imidazo[1,2-b][1,2,4]triazin-6-yl)methyl)-1-ethyl-1H-pyrazole-5-carboxamide]
6 | 100 to 1000 nM | > 1000 nM | CCn1nccc1C(=O)N[C@H](c1cn2nc(C[C@H]3C[C@@H](C(F)(F)F)CNC3=O)c(CN3CCN(CC(F)(F)F)C(=O)C3)nc2n1)C1CCC(F)(F)CC1 [Compound 352, N—((S)-(4,4-difluorocyclohexyl)(3-((3-oxo-4-(2,2,2-trifluoroethyl)piperazin-1-yl)methyl)-2-(((3R,5R)-2-oxo-5-(trifluoromethyl)piperidin-3-yl)methyl)imidazo[1,2-b][1,2,4]triazin-6-yl)methyl)-1-ethyl-1H-pyrazole-5-carboxamide]

The next lines start with the compound.

Row | SMILES | IC50 [1] | IC50 [2]
7 | CCn1nccc1C(=O)N[C@H](c1cn2nc(C[C@H]3C[C@@H](C(F)(F)F)CNC3=O)c(CN3C(C)CC3C)nc2n1)C1CCC(F)(F)CC1 (stereo partly drawn) [Compound 338, N-((1S)-(4,4-difluorocyclohexyl)(3-((2,4-dimethylazetidin-1-yl)methyl)-2-(((3R,5R)-2-oxo-5-(trifluoromethyl)piperidin-3-yl)methyl)imidazo[1,2-b][1,2,4]triazin-6-yl)methyl)-1-ethyl-1H-pyrazole-5-carboxamide] | < 100 nM | > 1000 nM
8 | CCn1nccc1C(=O)N[C@H](c1cn2nc(C[C@H]3C[C@@H](C(F)(F)F)CNC3=O)c(CN3CC4(C3)CC(F)(F)C4)nc2n1)C1CCC(F)(F)CC1 [Compound 340, N—((S)-(3-((6,6-difluoro-2-azaspiro[3.3]heptan-2-yl)methyl)-2-(((3R,5R)-2-oxo-5-(trifluoromethyl)piperidin-3-yl)methyl)imidazo[1,2-b][1,2,4]triazin-6-yl)(4,4-difluorocyclohexyl)methyl)-1-ethyl-1H-pyrazole-5-carboxamide] | < 100 nM | > 1000 nM
9 | CCn1nccc1C(=O)N[C@H](c1cn2nc(C[C@H]3C[C@@H](C(F)(F)F)CNC3=O)c(CN3CCC(C)(C)C3)nc2n1)C1CCC(F)(F)CC1 [Compound 342, N—((S)-(4,4-difluorocyclohexyl)(3-((3,3-dimethylpyrrolidin-1-yl)methyl)-2-(((3R,5R)-2-oxo-5-(trifluoromethyl)piperidin-3-yl)methyl)imidazo[1,2-b][1,2,4]triazin-6-yl)methyl)-1-ethyl-1H-pyrazole-5-carboxamide] | 100 to 1000 nM | > 1000 nM
10 | CCn1nccc1C(=O)N[C@H](c1cn2nc(C[C@H]3C[C@@H](C(F)(F)F)CNC3=O)c(CN3CCC4(CC4)C3)nc2n1)C1CCC(F)(F)CC1 [Compound 344, N—((S)-(3-((5-azaspiro[2.4]heptan-5-yl)methyl)-2-(((3R,5R)-2-oxo-5-(trifluoromethyl)piperidin-3-yl)methyl)imidazo[1,2-b][1,2,4]triazin-6-yl)(4,4-difluorocyclohexyl)methyl)-1-ethyl-1H-pyrazole-5-carboxamide] | 100 to 1000 nM | > 1000 nM
11 | CCn1nccc1C(=O)N[C@H](c1cn2nc(C[C@H]3C[C@@H](C(F)(F)F)CNC3=O)c(CN3CCC4(CC3)CC4)nc2n1)C1CCC(F)(F)CC1 [Compound 346, N—((S)-(3-((6-azaspiro[2.5]octan-6-yl)methyl)-2-(((3R,5R)-2-oxo-5-(trifluoromethyl)piperidin-3-yl)methyl)imidazo[1,2-b][1,2,4]triazin-6-yl)(4,4-difluorocyclohexyl)methyl)-1-ethyl-1H-pyrazole-5-carboxamide] | < 100 nM | > 1000 nM
12 | CCn1nccc1C(=O)N[C@H](c1cn2nc(C[C@H]3C[C@@H](C(F)(F)F)CNC3=O)c(CN3CCCC4(CC4)C3)nc2n1)C1CCC(F)(F)CC1 [Compound 347, N—((S)-(3-((5-azaspiro[2.5]octan-5-yl)methyl)-2-(((3R,5R)-2-oxo-5-(trifluoromethyl)piperidin-3-yl)methyl)imidazo[1,2-b][1,2,4]triazin-6-yl)(4,4-difluorocyclohexyl)methyl)-1-ethyl-1H-pyrazole-5-carboxamide] | < 100 nM | > 1000 nM
13 | CCn1nccc1C(=O)N[C@H](c1cn2nc(C[C@H]3C[C@@H](C(F)(F)F)CNC3=O)c(CN3CC4CC(C3)C4(F)F)nc2n1)C1CCC(F)(F)CC1 [Compound 348, N-((1S)-(3-((6,6-difluoro-3-azabicyclo[3.1.1]heptan-3-yl)methyl)-2-(((3R,5R)-2-oxo-5-(trifluoromethyl)piperidin-3-yl)methyl)imidazo[1,2-b][1,2,4]triazin-6-yl)(4,4-difluorocyclohexyl)methyl)-1-ethyl-1H-pyrazole-5-carboxamide] | < 100 nM | 100 to 1000 nM
14 | CCn1nccc1C(=O)N[C@H](c1cn2nc(C[C@H]3C[C@@H](C(F)(F)F)CNC3=O)c(CN3CCOC(C)C3)nc2n1)C1CCC(F)(F)CC1 (stereo partly drawn) [Compound 349, N-((1S)-(4,4-difluorocyclohexyl)(3-((2-methylmorpholino)methyl)-2-(((3R,5R)-2-oxo-5-(trifluoromethyl)piperidin-3-yl)methyl)imidazo[1,2-b][1,2,4]triazin-6-yl)methyl)-1-ethyl-1H-pyrazole-5-carboxamide] | < 100 nM | > 1000 nM
15 | CCn1nccc1C(=O)N[C@H](c1cn2nc(C[C@H]3C[C@@H](C(F)(F)F)CNC3=O)c(CN3CCOC(C)(C)C3)nc2n1)C1CCC(F)(F)CC1 [Compound 351, N—((S)-(4,4-difluorocyclohexyl)(3-((2,2-dimethylmorpholino)methyl)-2-(((3R,5R)-2-oxo-5-(trifluoromethyl)piperidin-3-yl)methyl)imidazo[1,2-b][1,2,4]triazin-6-yl)methyl)-1-ethyl-1H-pyrazole-5-carboxamide] | < 100 nM | > 1000 nM
16 | CCn1nccc1C(=O)N[C@H](c1cn2nc(C[C@H]3C[C@@H](C(F)(F)F)CNC3=O)c(C3COCCN3)nc2n1)C1CCC(F)(F)CC1 (stereo partly drawn) [Compound 353, N-((1S)-(4,4-difluorocyclohexyl)(3-(morpholin-3-yl)-2-(((3R,5R)-2-oxo-5-(trifluoromethyl)piperidin-3-yl)methyl)imidazo[1,2-b][1,2,4]triazin-6-yl)methyl)-1-ethyl-1H-pyrazole-5-carboxamide] | < 100 nM | > 1000 nM
17 | CCn1nccc1C(=O)N[C@H](c1cn2nc(C[C@H]3C[C@@H](C(F)(F)F)CNC3=O)c(C3CCOC4(C3)CN(C)C4)nc2n1)C1CCC(F)(F)CC1 (stereo partly drawn) [Compound 354, N-((1S)-(4,4-difluorocyclohexyl)(3-(2-methyl-5-oxa-2-azaspiro[3.5]nonan-8-yl)-2-(((3R,5R)-2-oxo-5-(trifluoromethyl)piperidin-3-yl)methyl)imidazo[1,2-b][1,2,4]triazin-6-yl)methyl)-1-ethyl-1H-pyrazole-5-carboxamide] | 100 to 1000 nM | > 1000 nM
